Reference: ChEMBL document CHEMBL1201862, “PubChem BioAssay data set” (2004)
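Interpolation was linear, between the two tested concentrations surrounding the appropriate level; five concentrations were tested over 48 hours in 96-well plates. GI50 is the concentration that inhibits growth by half.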 Calls of active or inactive are those of the source. Rule as the data show it: active = GI50 up to about 1.1 µM and inactive = higher.

Experiments:
Assay in all cases: inhibition of tumour cell growth, NCI panel, 48 h
UACC-257 = test system: UACC-257
NCI/ADR-RES = test system: NCI/ADR-RES
NCI-H522 = test system: NCI-H522
NCI-H226 = test system: NCI-H226
Malme-3M = test system: Malme-3M
TK-10 = test system: TK-10
CAKI-1 = test system: CAKI-1
SNB-19 = test system: SNB-19
U-251 = test system: U-251
RPMI-8226 = test system: RPMI-8226
UACC-62 = test system: UACC-62
NCI-H23 = test system: NCI-H23
K562 = test system: K562
ACHN = test system: ACHN
SNB-75 = test system: SNB-75
HCT-15 = test system: HCT-15
CCRF-CEM = test system: CCRF-CEM
HCC 2998 = test system: HCC 2998
RXF 393 = test system: RXF 393
HOP-92 = test system: HOP-92

SMILES | GI50 (UACC-257) | GI50 (NCI/ADR-RES) | GI50 (NCI-H522) | GI50 (NCI-H226) | GI50 (Malme-3M) | GI50 (TK-10) | GI50 (CAKI-1) | GI50 (SNB-19) | GI50 (U-251) | GI50 (RPMI-8226) | GI50 (UACC-62) | GI50 (NCI-H23) | GI50 (K562) | GI50 (ACHN) | GI50 (SNB-75) | GI50 (HCT-15) [µM] | GI50 (CCRF-CEM) | GI50 (HCC 2998) | GI50 (RXF 393) | GI50 (HOP-92)
NC(=O)c1nnc2cc(F)ccc2c1N | > 100 µM (inactive) | > 100 µM (inactive) | 46.3 µM (inactive) | 58.2 µM (inactive) | > 100 µM (inactive) | 76.2 µM (inactive) | 91.2 µM (inactive) | > 100 µM (inactive) | > 100 µM (inactive) | > 100 µM (inactive) | 97.3 µM (inactive) | > 100 µM (inactive) | > 100 µM (inactive) | 80.4 µM (inactive) | > 100 µM (inactive) | > 100 | > 100 µM (inactive) | > 100 µM (inactive) |  | 
C/C(=C\COP(=O)(O)OP(=O)(O)O)CC/C=C(\C)CNc1ccccc1 | 43 µM (inactive) | > 50 µM (inactive) | > 50 µM (inactive) | > 50 µM (inactive) |  | 39.4 µM (inactive) | > 50 µM (inactive) | 48.1 µM (inactive) | > 50 µM (inactive) | 0.005 µM (active) | > 50 µM (inactive) |  | > 50 µM (inactive) | > 50 µM (inactive) | 27.5 µM (inactive) | > 50 | 0.832 µM (active) |  | > 50 µM (inactive) | 
O=C1OC(c2ccccc2)N(C(=O)c2ccccc2)C1Cc1ccc(OCc2ccccc2)cc1 (stereo not given) |  | 19.9 µM (inactive) |  | > 100 µM (inactive) |  | 43.9 µM (inactive) |  | > 100 µM (inactive) | > 100 µM (inactive) | 87.5 µM (inactive) | 8.11 µM (inactive) | 36.7 µM (inactive) | > 100 µM (inactive) | 6.82 µM (inactive) | 15.7 µM (inactive) | > 100 | > 100 µM (inactive) | 21.8 µM (inactive) |  | 3.91 µM (inactive)
CC1=NNC(=O)C1C(CC(=O)c1c[nH]c2ccccc12)C(=O)O (stereo not given) | > 100 µM (inactive) | > 100 µM (inactive) | 72.1 µM (inactive) | > 100 µM (inactive) | > 100 µM (inactive) | > 100 µM (inactive) | > 100 µM (inactive) | > 100 µM (inactive) | > 100 µM (inactive) | 35.1 µM (inactive) | > 100 µM (inactive) | > 100 µM (inactive) | 36.1 µM (inactive) | > 100 µM (inactive) | > 100 µM (inactive) | 92.9 | 28.6 µM (inactive) |  | > 100 µM (inactive) | > 100 µM (inactive)
CN(C)/C=N/c1c2ccccc2nc2ccccc12 | 2.3 µM (inactive) | 10.6 µM (inactive) | 2.01 µM (inactive) | 1.75 µM (inactive) | 3.23 µM (inactive) | 7.16 µM (inactive) | 18 µM (inactive) | 4.25 µM (inactive) | 4.17 µM (inactive) | 1.79 µM (inactive) | 2.45 µM (inactive) | 3.31 µM (inactive) | 4.47 µM (inactive) | 5.02 µM (inactive) | 3.74 µM (inactive) | 8.13 | 4.21 µM (inactive) |  | 4.34 µM (inactive) | 5.4 µM (inactive)
O=C(c1ccccc1)c1ccc2[nH]c(-c3c(Cl)c(Cl)c(Cl)c(Cl)c3C(=O)N/N=C/c3ccccc3)nc2c1 | 23.3 µM (inactive) | 19.8 µM (inactive) | 18.1 µM (inactive) | 19.9 µM (inactive) | 26.1 µM (inactive) | 38.8 µM (inactive) | 34.1 µM (inactive) | 32.6 µM (inactive) | 35.8 µM (inactive) | 23.4 µM (inactive) |  | 23 µM (inactive) | 27.7 µM (inactive) | 16.7 µM (inactive) | 17.9 µM (inactive) | 23.2 | 12.3 µM (inactive) |  | 14.4 µM (inactive) | 23.7 µM (inactive)
Nc1ncnc2c1ncc(=O)n2C1CC(O)C(CO)O1 (stereo not given) | > 100 µM (inactive) | > 100 µM (inactive) | > 100 µM (inactive) | > 100 µM (inactive) | > 100 µM (inactive) | > 100 µM (inactive) | > 100 µM (inactive) | > 100 µM (inactive) | > 100 µM (inactive) | > 100 µM (inactive) | > 100 µM (inactive) | > 100 µM (inactive) | > 100 µM (inactive) | > 100 µM (inactive) | > 100 µM (inactive) | > 100 | > 100 µM (inactive) | > 100 µM (inactive) |  | > 100 µM (inactive)
Cc1nnc([C@@]2(C)CC[C@H]3[C@@H](CC=C4C[C@@H](O)CC[C@@]43C)[C@@H]2CC#N)o1 | 97.5 µM (inactive) | > 100 µM (inactive) | 22.5 µM (inactive) | > 100 µM (inactive) | > 100 µM (inactive) | > 100 µM (inactive) | > 100 µM (inactive) | > 100 µM (inactive) | > 100 µM (inactive) | 97.3 µM (inactive) | > 100 µM (inactive) | > 100 µM (inactive) | > 100 µM (inactive) | > 100 µM (inactive) | 27 µM (inactive) | > 100 | > 100 µM (inactive) |  | > 100 µM (inactive) | > 100 µM (inactive)
O=c1cc(NNc2cccc(F)c2)[nH]c(=S)[nH]1 | > 100 µM (inactive) | > 100 µM (inactive) |  | > 100 µM (inactive) | > 100 µM (inactive) | > 100 µM (inactive) |  | > 100 µM (inactive) | 54.6 µM (inactive) | 42.4 µM (inactive) |  |  | 61.4 µM (inactive) | > 100 µM (inactive) |  | 54.1 |  | 63.4 µM (inactive) |  | 19.2 µM (inactive)
CCOP(=O)(CC(=O)C1CC1)OCC | > 100 µM (inactive) | > 100 µM (inactive) | > 100 µM (inactive) | > 100 µM (inactive) | > 100 µM (inactive) | > 100 µM (inactive) | > 100 µM (inactive) | > 100 µM (inactive) | > 100 µM (inactive) |  | > 100 µM (inactive) | > 100 µM (inactive) | > 100 µM (inactive) | > 100 µM (inactive) | > 100 µM (inactive) | > 100 | > 100 µM (inactive) | > 100 µM (inactive) | 0.01 µM (active) | 
COC(=O)CCC1=CCC2(SC)C(=O)Nc3cccc1c32 (stereo not given) | > 100 µM (inactive) | > 100 µM (inactive) | > 100 µM (inactive) | > 100 µM (inactive) | > 100 µM (inactive) | > 100 µM (inactive) | > 100 µM (inactive) | > 100 µM (inactive) | > 100 µM (inactive) | > 100 µM (inactive) | > 100 µM (inactive) | > 100 µM (inactive) |  | > 100 µM (inactive) | > 100 µM (inactive) | > 100 | > 100 µM (inactive) | > 100 µM (inactive) |  | > 100 µM (inactive)
O/N=C\c1c2c(cc3c1CCC3)CCC2 | > 100 µM (inactive) | > 100 µM (inactive) | > 100 µM (inactive) | > 100 µM (inactive) | > 100 µM (inactive) | > 100 µM (inactive) | > 100 µM (inactive) | > 100 µM (inactive) | > 100 µM (inactive) | > 100 µM (inactive) | > 100 µM (inactive) | > 100 µM (inactive) | > 100 µM (inactive) | > 100 µM (inactive) | 36.5 µM (inactive) | > 100 | > 100 µM (inactive) | > 100 µM (inactive) |  | 
C#CC(O)/C=C/C(O)CCCC(O)CC#CC(O)C#CCCCCC(O)/C=C/CCCCCC(=O)CCCCCCCCCCCCCC(O)C(O)C#CC(=O)O (stereo not given) | > 25 µM (inactive) | > 25 µM (inactive) | 4.88 µM (inactive) | > 25 µM (inactive) | > 25 µM (inactive) | > 25 µM (inactive) | > 25 µM (inactive) | > 25 µM (inactive) | > 25 µM (inactive) | > 25 µM (inactive) | > 25 µM (inactive) | > 25 µM (inactive) | > 25 µM (inactive) | > 25 µM (inactive) | > 25 µM (inactive) | > 25 | 6.81 µM (inactive) | > 25 µM (inactive) |  | > 25 µM (inactive)
C/C=C(/C)C(=O)O[C@H]1CCN2CC=C(COC(=O)[C@@](O)([C@H](C)OC)C(C)(C)O)[C@H]12 | > 100 µM (inactive) | > 100 µM (inactive) | > 100 µM (inactive) | > 100 µM (inactive) |  | > 100 µM (inactive) | > 100 µM (inactive) | > 100 µM (inactive) | > 100 µM (inactive) | > 100 µM (inactive) | > 100 µM (inactive) | > 100 µM (inactive) | > 100 µM (inactive) | > 100 µM (inactive) | > 100 µM (inactive) | > 100 | > 100 µM (inactive) | > 100 µM (inactive) |  | > 100 µM (inactive)
COc1ccc(CC2c3cc(OC)c(OC)cc3CC[N+]2(C)C)cc1OC (stereo not given) | > 100 µM (inactive) | > 100 µM (inactive) | > 100 µM (inactive) | > 100 µM (inactive) | > 100 µM (inactive) | > 100 µM (inactive) | > 100 µM (inactive) | > 100 µM (inactive) | > 100 µM (inactive) | > 100 µM (inactive) | > 100 µM (inactive) | > 100 µM (inactive) | > 100 µM (inactive) | > 100 µM (inactive) | > 100 µM (inactive) | > 100 | > 100 µM (inactive) | > 100 µM (inactive) |  | > 100 µM (inactive)
OC1(c2ccc(Cl)cc2)c2ccccc2C2=NCc3ccccc3CN21 (stereo not given) | 14.3 µM (inactive) | 13.1 µM (inactive) | 14.1 µM (inactive) | 5.47 µM (inactive) | 13.9 µM (inactive) | 14.6 µM (inactive) | 12.3 µM (inactive) | 3.51 µM (inactive) | 7.24 µM (inactive) | > 21.3 µM (inactive) | 13.6 µM (inactive) | 6.97 µM (inactive) | 2.68 µM (inactive) | 4.45 µM (inactive) | 6.35 µM (inactive) | 7.14 | 7.6 µM (inactive) | 2.18 µM (inactive) |  | 13.1 µM (inactive)
